Data: US11267820B2, “Tricyclic fused pyridin-2-one derivatives and their use as BRD4 inhibitors” (JUBILANT BIOSYS LIMITED, priority 2015, dated 2022)

Test system: AML cell line MV4-11
Assay: Anticancer activity: Alamar Blue 3-day proliferation assay
Format: cell-based
Details: Homo sapiens, MV4-11 cells, 72h, read-out: MV4-11 EC50_μM
Protocol: The impact of the compounds on cancer cell proliferation was determined using the AML cell line MV4-11 (ATCC) in a 3-day proliferation assay. MV4-11 cells were maintained in RPMI supplemented with 10% FBS at 37° C., 5% CO2. For compound testing, MV4-11 cells were plated in a 96-well black bottom plate at a density of 15,000 cells/well in 100 μL culture media and incubated at 37° C. overnight. Compound dilution series were prepared in DMSO via a 3-fold serial dilution from 100 μM to 0.005 μM. The DMSO dilution series were then diluted with media, with the final compound concentrations added to the wells ranging from 10 μM to 0.0005 μM. […] The fluorescent readings from the Alamar Blue assay were normalized to the DMSO treated cells and analyzed using the GraphPad Prism software with siginoidal curve fitting to obtain EC50.

EC50 [µM] | SMILES
< 0.0005 | CCNC(=O)CC1OC(c2ccc(Cl)cc2)c2c(sc(C)c2C)-c2cn(C)c(=O)cc21 (racemic) [bb, 2-(4-(4-chlorophenyl)-2,3,9-trimethyl-8-oxo-4,6,8,9-tetrahydrothieno[2′,3′:5,6]oxepino[4,3-c]pyridin-6-yl)-N-ethylacetamide]
0.43 | CCOC(=O)CC1N=C(c2ccc(Cl)cc2)c2nc(C)sc2-c2cn(C)c(=O)cc21 (racemic) [l, Ethyl 2-(4-(4-chlorophenyl)-2,9-dimethyl-8-oxo-8,9-dihydro-6H-pyrido[4,3-c]thiazolo[5,4-e]azepin-6-yl)acetate]
0.017 | CCNC(=O)CC1N=C(c2ccc(Cl)cc2)c2cc(OC)ncc2-c2cn(C)c(=O)cc21 (racemic) [t, 2-(7-(4-chlorophenyl)-9-methoxy-2-methyl-3-oxo-3,5-dihydro-2H-dipyrido[4,3-c:3′,4′-e]azepin-5-yl)-N-ethylacetamide]
0.14 | CCNC(=O)CC1N=C(c2ccc(Cl)cc2)c2nc(C)sc2-c2cn(C)c(=O)cc21 (racemic) [m, 2-(4-(4-chlorophenyl)-2,9-dimethyl-8-oxo-8,9-dihydro-6H-pyrido[4,3-c]thiazolo[5,4-e]azepin-6-yl)-N-ethylacetamide]
0.026 | CCOC(=O)CC1N=C(c2ccc(Cl)cc2)c2c(cnn2C)-c2cn(C)c(=O)cc21 (racemic) [w, Ethyl 2-(4-(4-chlorophenyl)-3,9-dimethyl-8-oxo-3,6,8,9-tetrahydropyrazolo[3,4-c]pyrido[3,4-e]azepin-6-yl)acetate]
0.157 | CCNC(=O)CC1N=C(CC2CC2)c2c(sc(C)c2C)-c2cn(C)c(=O)cc21 (racemic) [r, 2-(4-(cyclopropylmethyl)-2,3,9-trimethyl-8-oxo-8,9-dihydro-6H-pyrido[4,3-c]thieno[2,3-e]azepin-6-yl)-N-ethylacetamide]
< 0.0005 | CCNC(=O)CC1OC(c2ccc(Cl)cc2)c2c(cnn2C)-c2cn(C)c(=O)cc21 (racemic) [ll, 2-(4-(4-chlorophenyl)-3,9-dimethyl-8-oxo-4,6,8,9-tetrahydro-3H-pyrazolo[4′,3′:5,6]oxepino[4,3-c]pyridin-6-yl)-N-ethylacetamide]
